A short description of data set [1]: Plasma protein binding (RED), human. The format is in vitro ADME. The settings on record: for fraction unbound at 4 hr: pH 7.4. On the procedure: (§1) Rapid Equilibrium Dialysis device (RED) is a 96-well formatted dialysis with disposable inserts and Teflon base design providing short incubation time. The membrane in RED physically separates of bound and free drug. After 4 hr incubation at 37° C., drug concentrations at both plasma (e.g., human, rat, dog, monkey, mouse) and pH 7.4 PBS buffer sides was quantitated by LC/MS/MS and % bound drug in plasma was calculated.

A further data set has as its target T1, CYP1A2 (Homo sapiens, UniProt P05177).
T1 sequence (P05177 1-516): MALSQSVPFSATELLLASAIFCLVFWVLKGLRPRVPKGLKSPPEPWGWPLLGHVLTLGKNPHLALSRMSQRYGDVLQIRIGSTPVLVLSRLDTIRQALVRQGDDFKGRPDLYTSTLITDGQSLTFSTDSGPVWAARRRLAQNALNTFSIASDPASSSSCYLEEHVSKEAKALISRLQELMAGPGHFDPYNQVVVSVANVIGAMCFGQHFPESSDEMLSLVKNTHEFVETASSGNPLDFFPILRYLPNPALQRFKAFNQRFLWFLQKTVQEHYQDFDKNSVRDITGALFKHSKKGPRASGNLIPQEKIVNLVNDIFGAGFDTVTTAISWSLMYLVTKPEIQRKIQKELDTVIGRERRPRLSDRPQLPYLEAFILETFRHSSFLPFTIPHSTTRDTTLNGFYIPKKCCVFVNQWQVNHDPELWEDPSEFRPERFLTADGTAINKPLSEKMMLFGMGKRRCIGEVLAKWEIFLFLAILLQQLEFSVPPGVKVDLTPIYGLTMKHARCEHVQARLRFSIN
As to the kind of experiment: Cytochrome P450 inhibition, CYP1A2. The source says: (§2) This cytochrome P450 high throughput IC50 inhibition assay is utilized for screening potential inhibitors of the 5 major human CYP isozyme catalytic activities (CYP3A4, 2D6, 2C9, 2C19, and 1A2).

Another data set concerns Schistosomes lavae. As to the kind of experiment: Screening against Schistosomes, larvae. The format is cell-based. As to conditions: Screening Data.
Data set [2] concerns Trypanosoma brucei rhodesiense strain STIB 900. As to the kind of experiment: Drug sensitivity assay against T. b. rhodesiense (Alamar blue). The format is cell-based. An excerpt: Trypanosoma brucei rhodesiense strain STIB 900, a clone of a population isolated in 1982 from a patient in Tanzania which is known to be susceptible to all currently used drugs was used in these assays. The bloodstream form trypomastigotes of this strain were maintained in supplemented Modified Eagle's Medium according to standard protocols (Hirumi H, Hirumi K, 1989. “Continuous cultivation of Trypanosoma brucei blood stream forms in a medium containing a low concentration of serum protein without feeder cell layers”. J Parasitol 75: 985-9).
Drug sensitivity assays were performed in sterile 96-well microtiter plates, with or without serial drug dilutions. The compounds were tested at 7 concentrations (drug concentration ranging from 90 μg/ml to 0.123 μg/ml in 3-fold dilutions). The highest concentration for the test compounds was 90 μg/ml. Each drug is tested in duplicate. After 72 hours of incubation the plates were inspected microscopically to assure growth of the controls to determine the minimum inhibitory concentration (MIC), i.e., the lowest drug concentration at which no trypanosomes with normal morphology and motility can be seen compared to control wells. Cell viability is measured by Alamar blue staining and IC50 values were calculated.
(§3) The bloodstream form trypomastigotes of the three strains are maintained according to standard protocols established at STI.
(§4) Drug sensitivity assays are performed in sterile 96-well microtiter plates, with or without serial drug dilutions. The highest concentration for the test compounds is 90 μg/ml. Each drug is tested in duplicate. After 72 hours of incubation the plates are inspected microscopically to assure growth of the controls to determine the minimum inhibitory concentration (MIC), i.e., the lowest drug concentration at which no trypanosomes with normal morphology and motility can be seen compared to control wells. Cell viability is measured by Alamar blue staining and IC50 values are calculated.
The preliminary screen used T. b. rhodesiense. The compounds were tested at 7 concentrations (drug concentration ranging from 90 μg/ml to 0.123 μg/ml in 3-fold dilutions).

For the next data set, the system named is T. b. brucei. As to the kind of experiment: Cell-based screening against T. b. brucei. On the set-up: species or system Trypanosoma brucei brucei. As to conditions: for IC50: Trypanosoma brucei, Screening Data, two values per compound. As to the method: as §3, §4
Active compounds (IC50<0.2 μg/ml) are tested against the Trypanosoma brucei gambiense STIB 930 and the multi-drug resistant T. b. brucei STIB 950 following the same protocol as described above.
This example provides data relating to the biological screening results. MDL 73811 and selected new compounds 1-7 were tested against a variety of cell-based organisms and enzymes and the IC50 measured. In vitro ADME profiles were also obtained. Solubility, permeability, microsomal/hepatocyte stability, cychrome P450 inhibition and plasma protein binding characteristics were probed for each of the compounds. The methodology for these tests are described in previous paragraphs. The results are summarized in the following 2 charts.

The nature of data set [3]: Hepatocyte stability, rat. It is filed as in vitro ADME. The settings on record: for Hepatocyte stability (CL) rat: Table 2; for CLint scaled: hepatocytes, Example 12 chart. As to the method: (§5) Liver microsomes and hepatocytes represent an in vitro surrogate for assessing the phase I/II metabolic stability of new discovery leads. Following the incubation of the compounds with microsomes or hepatocytes of different species (e.g., human, rat, dog, monkey, mouse), the samples were transferred to 96 well plates for quantitation using LC/MS/MS. The % of compound remaining was measured and used to calculate clearance and % hepatic blood flow.

For the next data set, the target named is CYP3A4 (Homo sapiens, UniProt P08684). As to the kind of experiment: Cytochrome P450 inhibition, CYP3A4.
CYP3A4, sequence (P08684 whole entry): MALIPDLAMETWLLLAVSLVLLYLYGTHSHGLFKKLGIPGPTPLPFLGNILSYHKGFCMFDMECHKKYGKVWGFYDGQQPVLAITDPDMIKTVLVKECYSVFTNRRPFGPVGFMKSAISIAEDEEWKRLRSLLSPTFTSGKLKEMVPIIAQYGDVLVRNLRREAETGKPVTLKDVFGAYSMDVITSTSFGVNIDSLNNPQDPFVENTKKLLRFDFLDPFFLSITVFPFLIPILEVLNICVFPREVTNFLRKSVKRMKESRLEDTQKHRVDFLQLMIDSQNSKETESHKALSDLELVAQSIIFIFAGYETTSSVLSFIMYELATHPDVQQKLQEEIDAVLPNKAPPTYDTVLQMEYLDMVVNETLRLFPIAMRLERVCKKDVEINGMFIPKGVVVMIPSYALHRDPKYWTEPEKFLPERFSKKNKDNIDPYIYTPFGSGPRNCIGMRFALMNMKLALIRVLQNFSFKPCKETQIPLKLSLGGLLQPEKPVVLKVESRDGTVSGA
Excerpt: as §2

A short description of data set [4]: Solubility in phosphate buffer. It is filed as physicochemical. The settings on record: for Sol.: Table 2, @ 7.4; for solubility at 16 hours: phosphate buffer, aqueous buffer, kinetic from dmso stock, Example 12 chart, pH 7.4. As to the method:
A stock solution for each test compound was prepared at 25 mM in DMSO. These were diluted into phosphate buffer and equilibrated for 16 hours at room temperature, and then filtered to remove precipitated compound. The UV absorbance of this equilibrated sample was compared to a single point reference standard.

A short description of data set [5]: Hepatocyte stability, human. The format is in vitro ADME. As to conditions: for Hepatocyte stability (CL) human: Table 2; for CLint scaled: hepatocytes, Example 12 chart. On the procedure:
as §5

A short description of data set [6]: Microsomal stability, rat. It is filed as in vitro ADME. As to conditions: for Microsomal stability (CL) rat: Table 2; for CLint scaled: liver microsomes, Example 12 chart. On the procedure:
as §5

Data set [7] in a line: Plasma protein binding (RED), mouse. It is filed as in vitro ADME. The settings on record: for fraction unbound at 4 hr: pH 7.4. As to the method: as §1
Data set [8] can be described thus: Permeability through lipid soaked artificial membrane. The format is in vitro ADME. As to conditions: for Perm.: Table 2. On the procedure: A stock solution for each test compound was prepared at 10 mM in DMSO. These were diluted into phosphate buffer and placed on one side (donor) of a two chamber microtiter plate separated by a lipid soaked membrane. With time, the compound passively diffused across the membrane barrier and the concentration in the second chamber (acceptor) increases. At the end of the experiment, drug concentration was determined in both the donor and acceptor solutions by UV absorbance. The permeability was calculated from the change in concentration, surface area, and incubation time.

Setting [9] is: plasma, Example 12 chart, human.
The mark [10] stands for this setting: human, probe fluorometric substrates (not named).
[11] abbreviates: Screening Data, read-out: IC50 T. b. rhod.
Where [12] appears, read: Table 1, 72 hours incubation, Alamar blue, read-out: IC50 against T. b. rhodesiense (ug/mL) by STI.
Setting [13] is: Table 2, read-out: IC50 against T. b. rhodesiense (ug/mL) by STI.
Where [14] appears, read: Table 3, read-out: IC50 against T. brucei rhodesiense.
The mark [15] stands for this setting: plasma, Example 12 chart, mouse.
The mark [16] stands for this setting: read-out: CYP IC50 1A2, Example 12 chart.
Where [17] appears, read: read-out: CYP IC50 3A4, Example 12 chart.

Molecules are shown by their SMILES. Read-outs that look alike come from different tables or passages of the source.

Regarding `CN(C/C=C\CN)C[C@H]1O[C@@H](n2cnc3c(N)ncnc32)[C@H](F)[C@@H]1O` (stereo in doubt) [Compound 1], in data set [1] (Table 2, human plasma), the “Plasma Protein Binding % human” value is 23.3%. Moreover, the fraction unbound (usually the share of the substance not bound to proteins or other matrix) at 4 hr in data set [1] (setting [9]) was 0.767; in data set [7] (setting [15]), 0.523. Besides, the IC50 at CYP1A2 (setting [10]) was greater than 5 µM; in the data set on Schistosomes lavae, greater than 10 µM; in data set [2] (setting [11]), 1.39 µM; in data set [2] (setting [12]), 0.489 µg/mL; in [2] (setting [13]), 0.489 µg/mL; in data set [2] (setting [14]), 0.489 µg/mL. In addition, the IC50 is greater than 14 µM in the data set on T. b. brucei and greater than 5 µM against CYP3A4 (setting [10]). Further, in data set [3], the “Hepatocyte stability (CL) rat” value is less than 11 mL/min/kg. Also, the values for the CLint scaled in [3], in [5] and in [6] were less than 3.5 mL/min/kg, less than 1.7 mL/min/kg and less than 7.7 mL/min/kg, respectively. For the same compound, the Sol. in data set [4] was >47 (@ 7.4) ug/ml. The solubility (commonly how much of the substance goes into solution per volume) at 16 hours in data set [4] is greater than 47 µg/mL. In addition, in data set [5], the “Hepatocyte stability (CL) human” value is recorded as less than 4.2 mL/min/kg. Moreover, the “Microsomal stability (CL) rat” value in data set [6] is on record as less than 11 mL/min/kg. Besides, in data set [7] (Table 2, mouse plasma), the “Plasma protein binding (%) mouse” value is 47.7%. For the same compound, the Perm. in data set [8] is on record as 0.00 10-6 cm/s.

For `Cc1nc2c(N)ncnc2n1[C@@H]1O[C@H](CN(C)C/C=C\CN)[C@@H](O)[C@H]1O` (stereo in doubt) [Compound 4], the “Plasma Protein Binding % human” value in data set [1] (Example 12 chart, human) is given as 41.2%. In addition, the “protein binding relative to MDL73811” value in data set [1] (compared with MDL73811 (human and mouse plasma in Table 2)) was “approximately half”. For the same compound, the fraction unbound at 4 hr in [1] (Table 2, human plasma) is 0.588; in data set [7] (Table 2, mouse plasma) it was 0.643. The IC50 against CYP1A2 is greater than 5 µM; on CYP1A2 (setting [16]), greater than 5 µM; in the data set with Schistosomes lavae, greater than 10 µM; in data set [2] (setting [11]) it was 0.001 µM; in [2] (setting [12]) it was 0.0004 µg/mL; in data set [2] (setting [13]) it was 0.0004 µg/mL. Also, the IC50 in data set [2] (setting [14]) is 0.0004 µg/mL; in data set [2] (read-out: IC50 against T. b. rhodesiense) it was 0.0004 µg/mL; with T. b. brucei, 0.027 µM; against CYP3A4, greater than 5 µM; at CYP3A4 (setting [17]), greater than 5 µM. For the same compound, the “potency against T. b. brucei, fold greater than that of MDL73811” value with T. b. brucei (vs MDL73811) was found to be 10 fold. The “Hepatocyte stability (CL) rat” value in data set [3] is given as less than 11 mL/min/kg. Besides, the CLint scaled – broadly, a measure of how fast metabolising enzymes remove a compound, apart from limits set by blood flow – in data set [3] is less than 3.5 mL/min/kg; in [5], less than 1.7 mL/min/kg; in data set [6], less than 7.7 mL/min/kg. Also, the Sol. in data set [4] is given as >49 (@ 7.4) ug/ml. The solubility at 16 hours in [4] is greater than 49 µg/mL. Further, the “Hepatocyte stability (CL) human” value in data set [5] is given as less than 4.2 mL/min/kg. The “Microsomal stability (CL) rat” value in data set [6] is reported as less than 11 mL/min/kg. In addition, the “Plasma protein binding (%) mouse” value in [7] (Example 12 chart, mouse) stood at 35.7%. Further, in data set [8] (PAMPA, Example 12 chart), the Papp (as a rule, the rate of passage across a membrane or cell layer, normalised by area and donor concentration) stood at 0.22 ×10⁻⁶ cm/s. In data set [8], the Perm. is reported as 0.22 10-6 cm/s.

With `CN(C/C=C\CN)C[C@H]1O[C@@H](n2cnc3c(N)ncnc32)[C@@H](F)[C@@H]1O` [Compound 2], in data set [1] (Table 2, human plasma), the “Plasma Protein Binding % human” value is on record as 32.2%. Also, the fraction unbound at 4 hr in data set [1] (setting [9]) was 0.678; in [7] (setting [15]), 0.628. Also, the IC50 against CYP1A2 is greater than 5 µM; on CYP1A2 (setting [16]), greater than 5 µM; with Schistosomes lavae, greater than 10 µM; in data set [2] (setting [11]), 2.59 µM; in [2] (setting [12]), 0.908 µg/mL; in data set [2] (setting [13]), 0.908 µg/mL. The IC50 in the data set on T. b. brucei was greater than 14 µM; against CYP3A4 it was greater than 5 µM; at CYP3A4 (setting [17]), greater than 5 µM. Also, the “Hepatocyte stability (CL) rat” value in data set [3] was less than 11 mL/min/kg. For the same compound, the figures for the CLint scaled in [3], in data set [5] and in [6] were less than 3.5 mL/min/kg, less than 1.7 mL/min/kg and less than 7.7 mL/min/kg, respectively. Besides, the Sol. in data set [4] is >47 (@ 7.4) ug/ml. Besides, the solubility at 16 hours in [4] was greater than 47 µg/mL. Moreover, the “Hepatocyte stability (CL) human” value in [5] is less than 4.2 mL/min/kg. Moreover, the “Microsomal stability (CL) rat” value in data set [6] is given as less than 11 mL/min/kg. In addition, in data set [7] (Table 2, mouse plasma), the “Plasma protein binding (%) mouse” value is given as 37.2%. In data set [8], the Perm. is given as 0.00 10-6 cm/s.

Values taken from US8633168B2, “Inhibitors of S-adenosyl-L-methionine decarboxylase” (Genzyme Corporation, priority 2007, dated 2014).
